In patent US11034656B2, “Maleate salts of (E)-N-(3-cyano-7-ethoxy-4-((4-phenoxyphenyl)amino) quinolin-6-yl)-4-(dimethylamino)but-2-enamide and crystalline forms thereof” (TELIGENE LTD, priority 2017, dated 2021):
Structures can show the parent of a compound that is named as a salt. Where two headings read alike, the source gives them in different places.

How the values were obtained:
Hygroscopicity test = format: physicochemical; conditions: 25° C.±1° C., relative humidity 80%±2%, 24 hours, (m3−m2)/(m2−m1)*100%
Experimental: Hygroscopicity tests of ((E)-N-(3-cyano-7-ethoxy-4-((4-phenoxyphenyl)amino) quinolin-6-yl)-4-(dimethylamino)but-2-enamide in different acid salts have been carried out by the following method:
Take the dry glass weighing bottle which has a plug (outer diameter is 50 mm, high is 15 mm); placed in a suitable 25° C.±1° C. constant temperature dryer (place a saturated solution of ammonium chloride or ammonium sulfate in the lower part) or artificial climate box (set the temperature to 25° C.±1° C. and the relative humidity to 80%±2%) one day before the test, accurately weighting its weight (m1).
Take appropriate amount of the test sample and lay it in the above weighing bottle, the thickness of the test sample is generally 1 mm, accurately weighting its weight (m2).
Open the weighing bottle and place it at the constant temperature and humidity as above-mentioned for 24 hours with its plug.
Accurately weighting its weight (m3), including the weighing bottle and its plug. Percentage of weight gain=(m3−m2)/(m2−m1)*100%

[1] = Bioavailability in SD rats (I.V. and PO); format: in vivo; conditions: rat, blood, male, I.V. 5 mg/kg, PO 10 mg/kg via gavage
Crystallinity by PXRD = format: physicochemical
Experimental: PXRD is performed in Rigaku UltimaIV diffractometer, copper target, λ=1.5406 A; working voltage 40 kv; working current: 40 Ma; scan speed: 60.000 deg./min; scan range: 4.0000->60.0000 deg.

SMILES: CCOc1cc2ncc(C#N)c(Nc3ccc(Oc4ccccc4)cc3)c2cc1NC(=O)/C=C/CN(C)C.O=C(O)/C=C\C(=O)O [Maleate salt, (E)-N-(3-cyano-7-ethoxy-4-((4-phenoxyphenyl)amino)quinolin-6-yl)-4-(dimethylamino)but-2-enamide Maleate]
- weight gain (%) (Hygroscopicity test): 0.2%
- bioavailability [1]: 49.6%
- Crystallinity by PXRD (Crystallinity by PXRD): crytalline

SMILES: CCOc1cc2ncc(C#N)c(Nc3ccc(Oc4ccccc4)cc3)c2cc1NC(=O)/C=C/CN(C)C [Citrate salt, (E)-N-(3-cyano-7-ethoxy-4-((4-phenoxyphenyl)amino)quinolin-6-yl)-4-(dimethylamino)but-2-enamide Citrate]
- weight gain (%) (Hygroscopicity test; Citrate): 27.04%
- bioavailability [1]: 36.7%
- Crystallinity by PXRD (Crystallinity by PXRD; Citrate): crystalline

SMILES: CCOc1cc2ncc(C#N)c(Nc3ccc(Oc4ccccc4)cc3)c2cc1NC(=O)/C=C/CN(C)C [L-malate salt, (E)-N-(3-cyano-7-ethoxy-4-((4-phenoxyphenyl)amino)quinolin-6-yl)-4-(dimethylamino)but-2-enamide Malate]
- weight gain (%) (Hygroscopicity test; Malate): 16.36%
- Crystallinity by PXRD (Crystallinity by PXRD; Malate): amorphous

SMILES: CCOc1cc2ncc(C#N)c(Nc3ccc(Oc4ccccc4)cc3)c2cc1NC(=O)/C=C/CN(C)C [Hydrochloride acid salt, (E)-N-(3-cyano-7-ethoxy-4-((4-phenoxyphenyl)amino)quinolin-6-yl)-4-(dimethylamino)but-2-enamide Hydrochloride]
- weight gain (%) (Hygroscopicity test; Hydrochloride): 46.67%
- Crystallinity by PXRD (Crystallinity by PXRD): amorphous

SMILES: CCOc1cc2ncc(C#N)c(Nc3ccc(Oc4ccccc4)cc3)c2cc1NC(=O)/C=C/CN(C)C [Sulphate salt, (E)-N-(3-cyano-7-ethoxy-4-((4-phenoxyphenyl)amino)quinolin-6-yl)-4-(dimethylamino)but-2-enamide Sulfate]
- weight gain (%) (Hygroscopicity test; Sulfate): 36.13%
